Assays:
Hpβ-clamp [1] = biological target: T1, Hpβ-clamp (Helicobacter pylori, UniProt O25242); assay: SPR surface competition with HpDNA ligase, immobilised Hpβ-clamp (qualitative); assay type: binding; settings: competitive with HpDNA ligase; HBS-EP pH 7.4, 2% DMSO
T1 construct: gene dnaN; recombinant, expressed in E. coli BL21, Ni-NTA and gel filtration purified (His-tag implied); homodimer
T1 sequence (O25242 1-374): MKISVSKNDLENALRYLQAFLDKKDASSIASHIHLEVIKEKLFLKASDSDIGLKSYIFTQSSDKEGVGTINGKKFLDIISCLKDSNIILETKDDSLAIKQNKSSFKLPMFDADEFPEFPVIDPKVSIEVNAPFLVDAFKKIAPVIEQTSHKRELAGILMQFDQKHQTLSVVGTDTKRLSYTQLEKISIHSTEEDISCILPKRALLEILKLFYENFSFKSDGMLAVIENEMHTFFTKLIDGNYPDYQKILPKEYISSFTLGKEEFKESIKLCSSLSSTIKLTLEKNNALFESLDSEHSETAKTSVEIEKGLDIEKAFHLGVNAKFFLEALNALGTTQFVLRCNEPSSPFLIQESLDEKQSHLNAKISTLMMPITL

Hpβ-clamp [2] = biological target: T1, Hpβ-clamp; assay: co-crystal structure ([…] Å); also SPR surface competition with HpDNA ligase; assay type: binding; settings: subsite I of protein-protein interaction site; competitive with HpDNA ligase

Compound | SPR surface competition with HpDNA ligase, immobilised Hpβ-clamp (qualitative) (Hpβ-clamp [1]) | co-crystal structure (1.97 Å); also SPR surface competition with HpDNA ligase (Hpβ-clamp [2])
O=[N+]([O-])c1ccc2cn[nH]c2c1 [C2, 6-nitroindazole] | All five shortlisted molecules showed competitive binding to β-clamp. | –
C[C@H](C(=O)O)c1ccc2c(c1)[nH]c1ccc(Cl)cc12 [C3, (S)-carprofen] | – | 5FXT (Hpβ-clamp complex with carprofen, C3)
O=[N+]([O-])c1ccc2[nH]ccc2c1 [C4, 5-nitroindole] | All five shortlisted molecules showed competitive binding to β-clamp. | –

From PMC5872116, “Screening of E. coli β-clamp Inhibitors Revealed that Few Inhibit Helicobacter pylori More Effectively: Structural and Functional Characterization” (Antibiotics, 2018)
